The results in this text go back to patent US20210369691A1, “METHODS AND COMPOSITIONS FOR IMPROVING BONE MARROW HEMATOPOIETIC FUNCTIONS” (Sun Yat-Sen University, priority 2018, published 2021).

For assay [1], the system named is hematopoietic stem cells. The experiment in a line: Hematopoietic repopulation by transplantation of bone marrow cells from inhibitor-treated mice. Type of assay: in vivo. The procedure:
To analyze whether Sphk2 deficient hematopoietic stem cells have increased hematopoietic function, 100 hematopoietic stem cells (Lin^−Sca-1^+c-Kit^+CD150^+CD48^−) from Sphk2 deficient mice or control donor mice were transplanted into irradiated wide-type recipients along with 2×10^5 CD45.1 bone marrow cells. Adult CD45.1 recipient mice were irradiated with an Orthovoltage X-ray source delivering approximately in two equal doses of 450 cGy at least 3 hours apart. Peripheral blood was collected from the tail vein every 4 weeks after the transplantation. Hematopoietic repopulation function was examined from donor-derived blood cells. To evaluate the hematopoietic function of the hematopoietic stem cells, 2×10^5 bone marrow cells from Sphk2 inhibitor or solvent control treated mice were transplanted into irradiated recipients (as described in Example 13). Peripheral blood was collected from the tail vein every 4 weeks after transplantation. The hematopoietic repopulation function was examined from donor-derived blood cells. The Sphk2 inhibitor was prepared as described in Example 4. Briefly, ABC294640 was purchased from Selleck and dissolved in dimethyl sulfoxide (DMSO), which was finally diluted with a mixture solution of polyethylene glycol 400 (PEG400) and physiological saline (1:1) to be administered at a dose of 10 mg/kg. […]

The test system of assay [2] is hematopoietic stem cells. The experiment in a line: Hematopoietic stem cell number in bone marrow after 5FU injury with ABC294640 treatment. Type of assay: in vivo, mice. As to conditions: vs solvent control. Here is the method:
In order to calculate the number of hematopoietic stem cells in mice, statistical quantification was performed for the number of hematopoietic stem cells using the molecular marker system Lin^−Sca1^+c-Kit^+CD150^+CD48^−, in combination with flow cytometry. Briefly, 2 million bone marrow cells were resuspended in 100 μl PBS, and 2 μl of a combination of anti-Lin, anti-Sca-1, anti-c-Kit, anti-CD150 and anti-CD48 was added. Samples were kept on ice for 1 h and washed with 1 ml of PBS, then resuspended with […] of PBS for flow cytometry analysis to determine the number of hematopoietic stem cells in the mouse bone marrow. T-test analysis was carried out using Graphpad6.0, and the difference was considered statistically significant when P<0.05. Twenty 8-week-old C57 mice (purchased from Laboratory Animal Center, Sun Yat-sen University) were injected intraperitoneally with 5FU at a dose of 150 mg/kg, respectively. After 5FU treatment, control mice (10 mice) were injected with a solvent control solution (1:1 physiological saline: PEG400) and the SphK2 inhibitor treatment mice (10 mice) were injected with the SphK2 inhibitor ABC294640. Briefly, 5FU was injected on day 1, and the inhibitor and solvent control solution were injected on day 2 and every other day, for five times in total. […] The SphK2 inhibitor ABC294640 was purchased from Selleck and dissolved in dimethyl sulfoxide (DMSO), it was then diluted with a mixture solution of polyethylene glycol 400 (PEG400) and physiological saline (1:1), and was injected to the mice with a dose of 10 mg/kg. T-test analysis was carried out using Graphpad6.0, and the differences were considered statistically significant when P<0.05.

Assay [3] has as its system platelets. The experiment in a line: Platelet recovery in peripheral blood after X-ray radiation. Format: in vivo, mice. As to conditions: after X-ray 450 cGy; ABC294640 10 mg/kg i.p. every other day; days 0, 1, 7, 14; vs solvent control; **P<0.01; FIG. 8. Here is the method:
Preparation of SphK2 inhibitors was as described in Example 4. Twelve 8-week-old C57 mice purchased from Laboratory Animal Center, Sun Yat-sen University were selected and divided evenly into two groups. The mice were treated with X-ray radiation at a dose of 450 cGy. The injection of the inhibitor ABC294640 and the solvent control solution was as described in Example 4. Intraperitoneal injection of the inhibitor or the solvent control solution started from the day after the X-ray radiation, followed by injections once every other day, at a dose of 10 mg/kg, until the end of the experiment. Periphery blood (PB) of each mouse was separately collected to determine white blood cell (WBC) counts 0, 1, 7 and 14 days after X-ray radiation. T-test analysis was carried out using Graphpad6.0, and differences were considered statistically significant when P<0.05.
The experiment was conducted as described in Example 7. Periphery blood (PB) of each mouse was separately collected to determine platelets (PLT) counts 0, 1, 7 and 14 days after X-ray radiation. T-test analysis was carried out using Graphpad6.0, and differences were considered statistically significant when P<0.05.

The subject of assay [4] is platelets. The experiment in a line: Platelet recovery in peripheral blood after 5FU. As to conditions: after 5FU 150 mg/kg once; ABC294640 10 mg/kg every other day; days 0, 1, 5, 11; vs solvent control; FIG. 6. Type of assay: in vivo, mice. The procedure: (§1) Preparation of the SphK2 inhibitor was as described in Example 4. Twelve 8-week-old C57 mice purchased from Laboratory Animal Center, Sun Yat-sen University were selected and divided evenly into two groups. The mice were intraperitoneally injected with 5FU at a dose of 150 mg/kg once. The injection of the inhibitor ABC294640 and the solvent control solution was as described in Example 4, which started from the day after 5-fluorouracil injection, followed by injections once every other day, at a dose of 10 mg/kg, until the end of the experiment. Periphery blood (PB) of each mouse was separately collected to determine white blood cell (WBC) counts 0, 1, 5 and 11 days after 5-FU administration. T-test analysis was carried out using Graphpad6.0, and differences were considered statistically significant when P<0.05.
The experiment was conducted as described in Example 5. Periphery blood (PB) of each mouse was separately collected to determine platelets (PLT) counts 0, 1, 5 and 11 days after 5-FU administration. T-test analysis was carried out using Graphpad6.0, and differences were considered statistically significant when P<0.05.

A further assay deals with white blood cells. The experiment in a line: White blood cell recovery in peripheral blood after 5FU. Type of assay: in vivo, mice. As to conditions: after 5FU 150 mg/kg once; ABC294640 10 mg/kg every other day; days 0, 1, 5, 11; vs solvent control; FIG. 5. Here is the method: as §1
Assay [5] in a line: Survival after repeated high-dose 5FU chemotherapy. Format: in vivo, mice. As to conditions: 5FU 150 mg/kg every 7 days, two times; ABC294640 10 mg/kg every other day; vs control group; FIG. 9. Here is the method: Preparation of SphK2 inhibitors was as described in Example 4. […] 8-week-old C57 mice purchased from Laboratory Animal Center, Sun Yat-sen University were selected and divided evenly into two groups. The mice were intraperitoneally injected with 5FU at a dose of 150 mg/kg, once every 7 days for two times in total. The inhibitor ABC294640 was injected starting from the day after 5FU injection, then injected once every other day, at a dose of 10 mg/kg, until the end of the experiment. Comparison of overall survival rates was performed using the Mantel_Cox log-rank test and differences were considered statistically significant when P<0.05.

Where [6] appears, read: day 14 post 5FU treatment, FIG. 26.

Structures are written as SMILES.

Regarding `O=C(NCc1ccncc1)C12CC3CC(C1)CC(c1ccc(Cl)cc1)(C3)C2` [ABC294640, 3-(4-chloro-phenyl)-adamantane-1-carboxylic acid (pyridin-4-ylmethyl)-amide], the “increase of hematopoietic reconstitution level” value with hematopoietic stem cells [1] (16 weeks after transplantation of 2x10^5 bone marrow cells from treated mice, FIG. 14 panel c) was found to be 1.5 fold. The “generation of multi-hematopoietic lineages in recipients” value with hematopoietic stem cells [1] (recipients of bone marrow cells from inhibitor-treated mice, FIG. 14 panel d) is “able to generate multi-hematopoietic lineages”. The “number of hematopoietic stem cells in bone marrow” value with hematopoietic stem cells [2] (after 5FU 150 mg/kg i.p., ABC294640 10 mg/kg every other day x5, day 12, **P<0.01, FIG. 4) is on record as “increased significantly”. Further, in the assay on hematopoietic stem cells [2] (setting [6]), the “increase of CD150 HSC pool size” value is recorded as “about 2.2 fold”, the “increase of LT-HSC pool size” value was “about 2.2 fold” and the “increase of ST-HSC pool size” value is “about 1.6 fold”. The “number of platelets in the peripheral blood” value with platelets [3] is “significantly increased”. Also, the “number of platelets from the peripheral blood” value with platelets [4] is given as “significantly increased”. In addition, the “number of white blood cells from the peripheral blood” value in the assay with white blood cells was “significantly increased”. The survival period entry in assay [5] is “significantly (***P<0.001) prolonged”.
